Experimental data reported in ChEMBL document CHEMBL2073894, “Localization of organic anion transporting polypeptide 4 (Oatp4) in rat liver and comparison of its substrate specificity with Oatp1, Oatp2 and Oatp3” (Pflugers Arch, 2001).

Legend:
Conditions in all cases: oocyte
[1] = target: T1, Solute carrier organic anion transporter family member 1A5 (Rattus norvegicus, UniProt O88397); assay: (§1) TP_TRANSPORTER: uptake in Xenopus laevis oocytes; type: functional, cell-based, Oocyte
T1 sequence (O88397 whole entry): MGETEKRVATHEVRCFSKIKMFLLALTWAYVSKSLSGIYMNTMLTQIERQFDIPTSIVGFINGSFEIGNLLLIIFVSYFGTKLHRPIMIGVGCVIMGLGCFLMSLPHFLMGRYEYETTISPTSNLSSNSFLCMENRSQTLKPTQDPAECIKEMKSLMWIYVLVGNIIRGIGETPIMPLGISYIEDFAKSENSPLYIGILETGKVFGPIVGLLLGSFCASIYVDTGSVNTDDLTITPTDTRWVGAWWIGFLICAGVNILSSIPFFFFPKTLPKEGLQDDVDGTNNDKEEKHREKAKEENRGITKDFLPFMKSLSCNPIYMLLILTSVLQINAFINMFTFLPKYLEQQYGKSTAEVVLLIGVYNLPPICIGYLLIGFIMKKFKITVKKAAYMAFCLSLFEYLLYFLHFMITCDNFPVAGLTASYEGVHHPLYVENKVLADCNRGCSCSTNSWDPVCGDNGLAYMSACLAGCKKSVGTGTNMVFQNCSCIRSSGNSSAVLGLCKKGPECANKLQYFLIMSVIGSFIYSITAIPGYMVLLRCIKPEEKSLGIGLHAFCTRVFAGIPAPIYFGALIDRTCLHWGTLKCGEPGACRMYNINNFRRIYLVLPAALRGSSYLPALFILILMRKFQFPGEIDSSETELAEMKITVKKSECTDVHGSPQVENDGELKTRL

[2] = target: T2, Solute carrier organic anion transporter family member 1B2 (Rattus norvegicus, UniProt Q9QZX8); assay: as §1; type: functional, cell-based
T2 sequence (Q9QZX8 whole entry): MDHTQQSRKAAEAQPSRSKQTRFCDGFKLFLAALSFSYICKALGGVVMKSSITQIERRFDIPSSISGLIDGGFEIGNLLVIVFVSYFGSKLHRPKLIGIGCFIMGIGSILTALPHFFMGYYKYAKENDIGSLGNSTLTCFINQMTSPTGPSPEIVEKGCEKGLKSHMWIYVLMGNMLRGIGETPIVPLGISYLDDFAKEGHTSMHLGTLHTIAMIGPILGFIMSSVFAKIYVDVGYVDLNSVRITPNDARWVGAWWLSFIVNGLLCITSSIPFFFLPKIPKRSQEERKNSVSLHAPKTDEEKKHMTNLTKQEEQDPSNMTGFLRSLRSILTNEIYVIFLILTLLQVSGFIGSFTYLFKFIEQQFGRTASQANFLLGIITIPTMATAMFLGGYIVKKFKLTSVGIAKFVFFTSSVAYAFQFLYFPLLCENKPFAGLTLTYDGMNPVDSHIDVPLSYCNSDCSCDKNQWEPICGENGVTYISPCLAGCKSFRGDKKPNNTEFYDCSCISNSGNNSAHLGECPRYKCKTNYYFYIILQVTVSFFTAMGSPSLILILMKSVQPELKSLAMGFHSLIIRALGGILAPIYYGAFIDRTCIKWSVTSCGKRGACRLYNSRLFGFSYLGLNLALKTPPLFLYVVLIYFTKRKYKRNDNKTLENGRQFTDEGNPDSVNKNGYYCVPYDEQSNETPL

[3] = target: T3, Solute carrier organic anion transporter family member 1A4 (Rattus norvegicus, UniProt O35913); assay: as §1; type: functional, cell-based
T3 sequence (O35913 whole entry): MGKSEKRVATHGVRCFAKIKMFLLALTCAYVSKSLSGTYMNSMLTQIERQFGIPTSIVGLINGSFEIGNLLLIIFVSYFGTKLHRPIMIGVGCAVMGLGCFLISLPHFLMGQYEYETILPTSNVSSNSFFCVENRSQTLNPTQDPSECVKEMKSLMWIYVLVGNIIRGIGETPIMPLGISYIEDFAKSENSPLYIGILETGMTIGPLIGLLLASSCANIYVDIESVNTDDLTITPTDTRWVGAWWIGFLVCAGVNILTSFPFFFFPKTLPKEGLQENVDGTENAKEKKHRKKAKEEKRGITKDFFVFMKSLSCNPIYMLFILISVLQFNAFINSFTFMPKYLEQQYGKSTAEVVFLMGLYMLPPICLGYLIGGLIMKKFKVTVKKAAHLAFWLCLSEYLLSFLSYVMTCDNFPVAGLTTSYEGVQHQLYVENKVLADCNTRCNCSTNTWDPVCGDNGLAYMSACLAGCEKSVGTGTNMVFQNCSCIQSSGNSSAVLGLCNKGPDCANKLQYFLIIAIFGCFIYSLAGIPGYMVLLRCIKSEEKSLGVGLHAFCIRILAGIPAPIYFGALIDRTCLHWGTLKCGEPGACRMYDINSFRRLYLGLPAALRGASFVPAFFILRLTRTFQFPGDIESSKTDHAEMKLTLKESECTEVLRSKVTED

[4] = target: T4, Solute carrier organic anion transporter family member 1A1 (Rattus norvegicus, UniProt P46720); assay: as §1; type: functional, cell-based
T4 sequence (P46720 whole entry): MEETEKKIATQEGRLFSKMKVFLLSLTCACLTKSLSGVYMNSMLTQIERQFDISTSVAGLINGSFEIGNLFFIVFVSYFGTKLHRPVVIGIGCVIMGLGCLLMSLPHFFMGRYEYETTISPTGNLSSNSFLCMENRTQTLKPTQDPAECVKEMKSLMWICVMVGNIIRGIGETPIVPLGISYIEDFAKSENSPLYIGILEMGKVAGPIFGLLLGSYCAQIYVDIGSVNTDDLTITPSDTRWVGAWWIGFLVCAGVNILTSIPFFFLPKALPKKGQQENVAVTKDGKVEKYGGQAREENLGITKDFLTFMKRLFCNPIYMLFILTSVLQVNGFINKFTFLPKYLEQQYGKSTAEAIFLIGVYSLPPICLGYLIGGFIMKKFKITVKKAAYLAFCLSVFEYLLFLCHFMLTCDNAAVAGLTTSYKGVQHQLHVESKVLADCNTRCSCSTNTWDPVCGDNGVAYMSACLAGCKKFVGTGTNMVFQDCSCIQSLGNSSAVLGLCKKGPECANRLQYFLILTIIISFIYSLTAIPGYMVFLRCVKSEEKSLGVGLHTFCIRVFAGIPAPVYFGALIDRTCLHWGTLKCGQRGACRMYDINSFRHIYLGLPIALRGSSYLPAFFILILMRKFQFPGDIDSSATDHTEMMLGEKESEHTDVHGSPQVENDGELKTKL

Activity [3]	Activity [4]	SMILES	Activity [1]	Activity [2]
–	–	C=C[C@H]1C[N+]2(C)CC[C@H]1C[C@H]2[C@H](O)c1ccnc2ccc(OC)cc12	is not a substrate [-]	is not a substrate [-]
is not a substrate [-]	–	Nc1ccc(C(=O)NCC(=O)O)cc1 [AMINOHIPPURIC ACID]	is not a substrate [-]	is not a substrate [-]
–	–	CC(C)[C@H](NC(=O)[C@H](CCC(=O)O)NC(=O)[C@H](Cc1ccccc1)NC(=O)[C@@H](C)NC(=O)[C@@H](N)Cc1ccc(O)cc1)C(=O)N[C@H](C(=O)NCC(N)=O)C(C)C [DELTORPHIN II]	is not a substrate [-]	is not a substrate [-]
–	is not a substrate [-]	CCCCC[C@H](O)/C=C/[C@H]1[C@H](O)CC(=O)[C@@H]1C/C=C\CCCC(=O)O [DINOPROSTONE]	–	–
–	is not a substrate [-]	CN(Cc1cnc2nc(N)nc(N)c2n1)c1ccc(C(=O)N[C@@H](CCC(=O)O)C(=O)O)cc1 [METHOTREXATE]	is not a substrate [-]	is not a substrate [-]
